“And” between values parts separate entries of the source, which are not always exact repeats. Equal values may be shown once.
Key:
[1] = tested on: Staphylococcus aureus ATCC 25923; assay: Microdilution broth susceptibility test, S. aureus reference strain; conditions: for activity at 100 µM: read-out: S. aureus microbial growth
Method: The in vitro antimicrobial activity of the isatin derivatives was evaluated by a microdilution broth method in accordance with the guidelines provided by a number of international committees, such as The Clinical Laboratory Standards Institute (CLSI) in the U.S. or The European Committee on Antimicrobial Susceptibility Testing (EUCAST) in Europe reference bacterial strains, including Staphylococcus aureus (ATCC 25923) and Escherichia coli (ATCC 25922) and Candida albicans (ATCC 10231), were purchased from the American Type Culture Collection (ATCC); they were routinely cultured in 5% sheep blood agar plate and in Sabauraud dextrose agar, respectively, at 37 °C. Clinical isolates, identified by MALDI-TOF MS (Bruker Daltonik, GmbH, Bremen, Germany), were profiled for their antibiotic susceptibility by using the Vitek2 semiautomated system (bioMerieux, Craponne, France) and according to EUCAST guidelines [EUCAST: The European Committee on Antimicrobial Susceptibility Testing. Breakpoint tables for interpretation of MICs and zone diameters. Version 12, 2022, http://www.eucast.org (accessed on 1 January 2022)].
Microbial inocula were prepared at 0.5 McFarland in PBS and, subsequently, bacterial suspensions were diluted 1:200 in Mueller–Hinton broth (Sigma-Aldrich, St. Louis, MO, USA), while fungal inoculum was diluted 1:20 in RPMI-1640 medium (Gibco®, ThermoFisher Scientific Inc., Waltham, MA, USA), containing glucose 2%, 0.3% levo-glutamine buffered to pH 7.0 with 0.165 M 3-(N-morpholino)propanesulfonic acid (MOPS). A total of 100 µL of these microbial suspensions were introduced in a 96-well microplate and treated with 100 µL of the compound at 100 µM or with two-fold serial dilutions of the compound in the range of 400 µM–3.12 µM. All compounds were previously dissolved in 100% DMSO at a concentration of 20 mM. Experiments included controls used to measure the microbial growth in regular medium (positive control) and to check the background turbidity of the reagents and the sterility of the procedures (negative controls). In addition, microbial growths were assessed in the presence of the DMSO solvent in the range of 0.015–2%. The inoculated plate was incubated at 37 °C for 24 h, and subsequently, the optical density at 630 nm was measured by the Multiskan Ascent microplate reader (Thermo Fisher Scientific Inc., Waltham, MA, USA). […] All the experiments were performed on triplicate in at least two independent assays.

[2] = tested on: Escherichia coli ATCC 25922; assay: Microdilution broth susceptibility test, E. coli reference strain; format: cell-based; conditions: ATCC25922, 24 h, growth as percentage relative to positive growth control, mean ± SD, read-out: E. coli microbial growth
From the text: (§1) Breakpoint tables for interpretation of MICs and zone diameters.

[3] = tested on: Candida albicans ATCC 10231; assay: Microdilution broth susceptibility test, C. albicans reference strain; format: cell-based; conditions: for activity at 100 µM: Candida albicans, ATCC10231, 24 h, growth as percentage relative to positive growth control, mean ± SD, read-out: C. albicans microbial growth
From the text: as §1

Vero cells (ATCC CCL-81) = assay: Cytotoxicity test, WST8-based CCK-8 cell viability; parameters: species or system African green monkey; Vero cell proliferation: unit: %; conditions: 100 µM; for Vero cell proliferation: 48 h, cell viability as percentage relative to untreated controls, mean ± SD
Method: African green monkey kidney cells (Vero ATCC CCL-81) obtained from ATCC were cultured in Eagle’s minimal essential medium (MEM) (Sigma-Aldrich, St. Louis, MO, USA), supplemented with 10% fetal bovine serum (FBS) (Carlo Erba Reagents, Milan, Italy), 100 U/mL penicillin, and 100 µg/mL streptomycin at 37 °C with 5% CO2. For the experiments, the cells were seeded into 96-well plates at 10^4 cells/well and incubated at 37 °C for 24 h. Following washes with PBS, the cell monolayer was incubated with 100 µL of medium containing 100 µM of the derivatives. Both untreated cells and cells incubated with the solvent were included in each experiment as controls. The cell viability was assessed by a WST8-based assay according to the manufacturer’s instructions (CCK-8, Cell Counting Kit-8, Dojindo Molecular Technologies, Rockville, MD, USA). After 48 h of incubation, the culture medium was removed from each well, the monolayer was washed with PBS, and 100 µL of fresh medium containing 10 µL of CCK-8 solution were added. Following 2 h at 37 °C, the absorbance was measured at 450/630 nm; data were calculated as the percentage of the cell viability relative to the untreated controls.

[4] = tested on: S. aureus clinical isolates (MSSA and MRSA); assay: Microdilution broth susceptibility test, S. aureus clinical isolates; format: cell-based; conditions: Staphylococcus aureus, 10 clinical isolates, read-out: IC50 against S. aureus clinical isolates (range over isolates)
From the text: as §1

[5] = Staphylococcus aureus, ATCC25923, 24 h

O=C1Nc2ccccc2C1(c1c(Cl)nc2sccn12)c1c(Cl)nc2sccn12 [6c, 3,3-bis(6-chloroimidazo[2,1-b]thiazol-5-yl)indolin-2-one]
activity at 100 µM [1, 5]: 95.4 ± 2.4% | activity at 100 µM [2]: 117 ± 3.1% | activity at 100 µM [3]: 126 ± 2.1% | Vero cell proliferation (Vero cells (ATCC CCL-81)): 92.8 ± 4.8

Cc1cc(C)c2c(c1)NC(=O)C2(C1CNc2ccccc21)C1CNc2ccccc21 (stereo not shown) [4e, 4′,6′-dimethyl-[3,3′:3′,3″-terindolin]-2′-one]
activity at 100 µM [1, 5]: 71.2 ± 8.7% | activity at 100 µM [2]: 103 ± 1.4% | activity at 100 µM [3]: 68.8 ± 2.7% | Cytotoxicity on Vero cells in words (Vero cells (ATCC CCL-81)): affect Vero cells proliferation | Vero cell proliferation (Vero cells (ATCC CCL-81)): 8.5 ± 0.3

O=C1Nc2c(Cl)ccc(Cl)c2C1(C1CNc2ccccc21)C1CNc2ccccc21 (stereo not shown) [4f, 4′,7′-dichloro-[3,3′:3′,3″-terindolin]-2′-one]
activity at 100 µM [1, 5]: 75.8 ± 1.8% | activity at 100 µM [2]: 96.9 ± 1.7% | activity at 100 µM [3]: 107 ± 4.2% | Cytotoxicity on Vero cells in words (Vero cells (ATCC CCL-81)): affect Vero cells proliferation | Vero cell proliferation (Vero cells (ATCC CCL-81)): 9.8 ± 0.5

O=C1Nc2cccc(I)c2C1(C1CNc2ccccc21)C1CNc2ccccc21 (stereo not shown) [4h, 4′-iodo-[3,3′:3′,3″-terindolin]-2′-one]
activity at 100 µM [1, 5]: 72.8 ± 6.1% | activity at 100 µM [2]: 82 ± 1.5% | Antifungal activity against C. albicans in words ([3]; 100 µM (48.93 µg/mL)): significantly reduced the growth of C. albicans | activity at 100 µM [3]: 23.2 ± 2.1% | Cytotoxicity on Vero cells in words (Vero cells (ATCC CCL-81)): affect Vero cells proliferation | Vero cell proliferation (Vero cells (ATCC CCL-81)): 10.6 ± 0.3

COc1ccc2c(c1)C(C1(C3CNc4ccc(OC)cc43)C(=O)N(Cc3ccc(Cl)cc3)c3ccccc31)CN2 (stereo not shown) [5m, 1′-(4-chlorobenzyl)-5,5″-dimethoxy-[3,3′:3′,3″-terindolin]-2′-one]
activity at 100 µM [1, 5]: 95.1 ± 3.9% | activity at 100 µM [2]: 113 ± 0.6% | activity at 100 µM [3]: 88.2 ± 5.2% | Vero cell proliferation (Vero cells (ATCC CCL-81)): 87.0 ± 5.7

COc1ccc(CN2C(=O)C(C3CNc4ccccc43)(C3CNc4ccccc43)c3cc(OC)ccc32)cc1 (stereo not shown) [4g, 5′-methoxy-1′-(4-methoxybenzyl)-[3,3′:3′,3″-terindolin]-2′-one]
activity at 100 µM [1, 5]: 86.2 ± 5.7% | activity at 100 µM [2]: 100.3 ± 0.7% | activity at 100 µM [3]: 50.6 ± 6.6% | Vero cell proliferation (Vero cells (ATCC CCL-81)): 107.9 ± 8.9

COc1ccc2c(c1)C(C1(C3CNc4ccc(OC)cc43)C(=O)Nc3cc(OC)c(OC)c(OC)c31)CN2 (stereo not shown) [5d, 4′,5,5′,5″,6′-pentamethoxy-[3,3′:3′,3″-terindolin]-2′-one]
activity at 100 µM [1, 5]: 89.1 ± 7% | activity at 100 µM [2]: 117 ± 1.1% | activity at 100 µM [3]: 120 ± 2% | Vero cell proliferation (Vero cells (ATCC CCL-81)): 54.3 ± 0.9

COc1ccc(CN2C(=O)C(c3c(Cl)nc4sccn34)(c3c(Cl)nc4sccn34)c3cc(OC)ccc32)cc1 [6g, 3,3-bis(6-chloroimidazo[2,1-b]thiazol-5-yl)-5-methoxy-1-(4-methoxybenzyl)indolin-2-one]
activity at 100 µM [1, 5]: 67.4 ± 8.4% | activity at 100 µM [2]: 73.6 ± 9.1% | activity at 100 µM [3]: 92.4 ± 3.6% | Vero cell proliferation (Vero cells (ATCC CCL-81)): 84.3 ± 0.9

COc1ccc2c(c1)C(c1c(Cl)nc3sccn13)(c1c(Cl)nc3sccn13)C(=O)N2 [6k, 3,3-bis(6-chloroimidazo[2,1-b]thiazol-5-yl)-5-methoxyindolin-2-one]
Activity against S. aureus in words ([1]; 100 µM): highly active | Efficacy at the highest tested concentration in words ([1]; 400 µM): completely inhibit bacterial growth | Selectivity of antibacterial activity versus cytotoxicity in words ([1]; S. aureus growth compared with Vero cytotoxicity at 100 µM): selective inhibitory property against the Gram-positive strain | IC50 ([1]; Staphylococcus aureus, ATCC25923, 24 h, read-out: IC50 against S. aureus): 39.1 µg/mL and 80 µM | activity at 100 µM [1, 5]: 43.4 ± 5.6% | activity at 100 µM [2]: 103 ± 2.4% | activity at 100 µM [3]: 104 ± 1.9% | Vero cell proliferation (Vero cells (ATCC CCL-81)): 70.9 ± 5.6 | IC50 [4]: 73 to 85.3 µM

O=C1Nc2cc(OC(F)(F)F)ccc2C1(C1CNc2ccccc21)C1CNc2ccccc21 (stereo not shown) [4l, 6′-(trifluoromethoxy)-[3,3′:3′,3″-terindolin]-2′-one]
activity at 100 µM [1, 5]: 72 ± 2.2% | activity at 100 µM [2]: 103 ± 1.6% | activity at 100 µM [3]: 93.3 ± 2.1% | Vero cell proliferation (Vero cells (ATCC CCL-81)): 8.9 ±0.4
